Source: US11254720B2, “Methods and systems for designing and/or characterizing soluble lipidated ligand agents” (Tufts Medical Center, priority 2013, dated 2022)
Non-standard residues stand in square brackets, D forms with d. Residues, ends and D or L forms follow the SMILES beside them. *: point of attachment. PEG8 = NCCOCCOCCOCCOCCOCCOCCOCCOCCC(=O)O; Palmitoyl = CCCCCCCCCCCCCCCC(=O)*; Tic = O=C(O)[C@@H]1Cc2ccccc2CN1

Legend:
mouse CMKLR1 [1] = target: T1, mouse CMKLR1 (Mus musculus, UniProt P97468); test: Washout experiments (serial washes after 15 min ligand, luciferase readout)
T1 sequence (P97468 1-371): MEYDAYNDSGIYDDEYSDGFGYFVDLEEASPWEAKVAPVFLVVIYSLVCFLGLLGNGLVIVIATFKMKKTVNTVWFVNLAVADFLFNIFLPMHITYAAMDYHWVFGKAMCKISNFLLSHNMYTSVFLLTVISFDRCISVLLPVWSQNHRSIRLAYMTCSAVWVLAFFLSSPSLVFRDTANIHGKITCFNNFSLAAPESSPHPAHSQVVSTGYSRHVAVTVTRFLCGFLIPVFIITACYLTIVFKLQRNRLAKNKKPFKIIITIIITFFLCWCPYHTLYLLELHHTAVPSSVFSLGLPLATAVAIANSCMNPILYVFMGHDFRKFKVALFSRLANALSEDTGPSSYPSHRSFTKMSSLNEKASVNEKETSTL
Description: (§1) Agonist activity was compared with and without serial washings shortly after addition of ligand. Briefly, HEK293 cells were plated and transfected as described above with the addition of a poly-L-lysine plate pretreatment step to enhance cell adhesion. Twenty-four hours after transfection, cells were stimulated with increasing concentrations of agonist for 15 minutes at 37° C. Selected wells were washed three times with serum-free media. Plates were then incubated for an additional 4 hours. Receptor mediated signaling was assessed using a luciferase based assay as described above.
(§2) HEK293 cells were transiently transfected with cDNAs encoding i) human or mouse CMKLR1, ii) a SRE5x-Luc reporter gene, iii) a Gαq5i66V chimera, and iv) a β-galactosidase control. Twenty-four hours after transfection, cells were stimulated with increasing concentrations of various ligands for 15 minutes. Selected wells were then washed three times with serum-free media and plates were further incubated for 4 hours.

[2] = system: HEK293 cells transfected with vector control (pcDNA1.1); test: Luciferase reporter assay in cells transfected with vector control; assay type: cell-based, human; conditions: cells transfected with pcDNA1.1 vector control
Description: (§3) Receptor-mediated signaling was assessed as previously described. Briefly, HEK293 cells were plated at a density of 6,000 cells/well into 96-well clear-bottom plates and grown to ˜80% confluence. […] Expression of Gq5i66V directs signaling of the Gαi-coupled chemerin receptor to stimulation of a Gαq-dependent SRE5x-Luc-PEST reporter gene. For experiments investigating the agonist function of soluble and lipidated peptides, tethered ligand cDNA was not included in the transfection mixture. Twenty four hours after transfection, cells were stimulated with or without peptide agonist for 4 hours in serum-free medium. […] Following ligand stimulation, the media was aspirated and luciferase activity measured using SteadyLite reagent and quantified using a TopCount NTX. A β-galactosidase assay was then performed following assessment of luminescence. Cleavage of 2-nitrophenyl β-D-galactopyranoside substrate was quantified after incubation of cell lysates at 37° C. for 30 to 60 minutes by measuring the optical density at 420 nm on a SpectraMax microplate reader. Luciferase reporter gene activities were normalized to corresponding β-galactosidase activity controls.

human CMKLR1 [3] = target: T2, human CMKLR1 (Homo sapiens, UniProt Q99788); test: SRE-luciferase reporter gene assay in transfected HEK293 cells; conditions: pEC50, Human CMKLR1, no wash; mean ± S.E.M.
T2 sequence (Q99788 1-373): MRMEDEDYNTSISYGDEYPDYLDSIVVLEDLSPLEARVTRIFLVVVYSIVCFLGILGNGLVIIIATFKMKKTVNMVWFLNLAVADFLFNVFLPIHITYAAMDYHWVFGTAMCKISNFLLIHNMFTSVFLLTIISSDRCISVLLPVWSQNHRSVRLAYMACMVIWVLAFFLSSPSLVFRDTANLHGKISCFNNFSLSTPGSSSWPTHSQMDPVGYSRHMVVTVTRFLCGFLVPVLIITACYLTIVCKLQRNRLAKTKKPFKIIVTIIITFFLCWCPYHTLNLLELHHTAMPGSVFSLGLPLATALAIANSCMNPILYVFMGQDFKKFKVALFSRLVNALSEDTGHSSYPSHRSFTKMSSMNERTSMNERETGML
Description: as §3
(§4) HEK293 cells were transiently transfected with cDNAs encoding i) human or mouse CMKLR1, ii) a SRE5x-Luc reporter gene, iii) a Gαq5i66V chimera, and iv) a β-galactosidase control. Twenty-four hours after transfection, cells were stimulated with ligand for 4 hours and luciferase activity determined as described in Experimental Procedures. Luciferase activity was normalized relative to the maximal value observed using saturating concentrations of the corresponding soluble ligand (=100%). […] As a next step, the effect of membrane anchoring on chemerin activity was examined. […] HEK293 cells were transiently transfected with cDNAs encoding i) various tethered ligands, ii) human or mouse CMKLR1, iii) a SRE5x-Luc reporter gene, iv) aGαq5i66V chimera, and v) a β-galactosidase control. Twenty-four hours after transfection, luciferase activity was determined as described in Experimental Procedures.
(§5) HEK293 cells were transiently transfected with cDNAs encoding i) 8 ng of various tethered ligands, ii) human or mouse CMKLR1, iii) a SRE5x-Luc reporter gene, iv) a Gαq5i66V chimera, and v) a β-galactosidase control. Twenty-four hours after transfection, luciferase activity was determined as described in Experimental Procedures.

Adult CD1 mice = test: Chronic constriction injury neuropathic pain model, von Frey and acetone tests; assay type: in vivo, mouse; conditions: intrathecal 100 pmol, 1 week after nerve injury
Description: Intrathecal injection of 1-stable chem (100 pmol), 1 week after CCI, reduces CCI-induced mechanical hypersensitivity (panels A+C) and cold allodynia (panel E). Intrathecal injection of ResolvinE1 (RvE1)(100 pmol), 1 week after CCI, reduces CCI-induced mechanical hypersensitivity (panels B+D) and cold allodynia (panel F). BL=baseline before surgery.
Adult CD1 mice (male, 25-35 g) were used for behavioral studies. Mice were group-housed and kept under a 12-hour light/dark cycle. […]
Nerve injury-induced mechanical allodynia and hypersensitivity were assessed by von Frey hairs as previously described (see Xu et al., Resolvin E1 inhibits neuropathic pain and spinal cord microglial activation following peripheral nerve injury, 2013, J. Neuroimmune Pharmacol, 8: 37-41). […] The 50% paw withdrawal threshold (PWT) was determined using Dixon's up-down method. For paw withdrawal frequency (PWF), the same von Frey hair (0.16 g) was applied 10 times and the number of positive responses to the stimulations counted. A positive response was scored if the mouse sharply withdrew the paw or flinched upon removal of the stimulus. […] In brief, a drop of acetone was placed against the plantar paw of the mouse and the mouse's response monitored for the next 20 seconds. […]

mouse CMKLR1 [4] = target: T1, mouse CMKLR1; test: SRE-luciferase reporter gene assay in transfected HEK293 cells
Description: as §3, §4, §5

human CMKLR1 [5] = target: T2, human CMKLR1; test: Washout experiments (serial washes after 15 min ligand, luciferase readout)
Description: as §1, §2

Male FVB mice = test: Ovalbumin sensitization and aerosol challenge model of allergic airway inflammation; assay type: in vivo, mouse; conditions: Day 18
Description: Representative photographs are taken at 20× magnification. (C) Lung tissue sections at Day 18 were obtained from fixed, paraffin-embedded lung tissue stained with hematoxylin and eosin. Representative photographs are taken at both 20× and 40×. (D) Total BALF cells and leukocyte subsets were quantified on Day 18 and compared between mice receiving DMSO or l-Stable Chem. Data are representative of the mean±S.E.M. from n=3-8 mice per group. Comparison of DMSO control to l-Stable Chem: *p<0.05.
Male FVB mice age 5-7 weeks (Charles River Laboratories) were housed under viral antibody-free conditions. Ovalbumin (OVA) sensitization and drug administration were performed as previously described with slight modifications. Briefly, mice were sensitized with intraperitoneal injection of 10 μg OVA (Grade III: Sigma) on days 0 and 7. On days 14, 15, 16, and 17, mice received a 25 minute aerosol challenge of 6% (wt/vol) OVA each day. On each of these days, 30 min prior to OVA challenge, mice were given 20 μL of lipidated stable chemerin (21 mM stock in DMSO diluted 1:100 in saline for a final concentration of 210 μM) by the intranasal route. Corresponding controls received DMSO diluted 1:100 in saline. On day 18 or 22, bronchoalveolar lavage fluid (BALF) was collected; animals were sacrificed for histological assessment. […] Cells in BALF were resuspended in PBS and counted with a hemocytometer; cytospins were done via cytocentrifugation (265 g; StatSpin). Cells from the cytospin were stained with Wright-Giemsa stain (Sigma) for quantification of leukocyte subsets. At least 200 cells were counted per slide. […] On the 5th day (corresponding to day 18), mice were sacrificed and BALF collected and analyzed as described above.
Given the high potency, stability, and wash resistance of the lipidated stable chemerin analog, the anti-inflammatory activity of this compound in vivo was examined. […] Markers of inflammation were assessed at day 18 (time course: FIG. 6A).

[6] = three washes after 15 min ligand

EC50 (mouse CMKLR1 [1]; pEC50, Mouse CMKLR1, + wash, washed three times after 15 min ligand, then 4 hours): 11 nM
Agonist activity after serial washes, mouse CMKLR1 (mouse CMKLR1 [1]; [6]): persisted despite washing
EC50 (human CMKLR1 [3]): 2.57 nM
EC50 (mouse CMKLR1 [4]; EC50 (nM), Mouse CMKLR1, no wash, HEK293 luciferase reporter): 2 nM
EC50 (mouse CMKLR1 [4]; pEC50, Mouse CMKLR1, no wash, mean ± S.E.M.): 2 nM
EC50 (human CMKLR1 [5]; pEC50, Human CMKLR1, + wash, washed three times after 15 min ligand, then 4 hours): 25.1 nM
Agonist activity after serial washes, human CMKLR1 (human CMKLR1 [5]; [6]): persisted despite washing
SMILES: CCCCCCCCCCCCCCCC(=O)NCCOCCOCCOCCOCCOCCOCCOCCOCCC(=O)NCC(=O)NCC(=O)N[C@H](Cc1ccc(O)cc1)C(=O)N[C@@H](Cc1ccccc1)C(=O)N[C@@H](CC(C)C)C(=O)N1CCC[C@H]1C(=O)N[C@H](CO)C(=O)N[C@@H](CCC(N)=O)C(=O)N[C@@H](Cc1ccccc1)C(=O)N[C@H](C)C(=O)N1Cc2ccccc2C[C@H]1C(=O)N[C@@H](CO)C(=O)O [I-Stable Chem] ({Palmitoyl-PEG8}-GG[dY]FLP[dS]QF[dA][Tic]S-OH)
Agonist activity without CMKLR1 expression [2]: no agonist activity
Duration of significant reduction of established mechanical and cold allodynia (Adult CD1 mice): greater than 24 hours
Lung inflammatory response (H+E staining) (Male FVB mice; in comparison to DMSO controls): Less leukocyte infiltration and fewer reactive bronchial epithelial cells
Number of eosinophils in bronchoalveolar lavage fluid (Male FVB mice; intranasal, 30 min prior to OVA challenge, versus DMSO): decreased
Airway epithelial mucus (PAS staining) (Male FVB mice; versus DMSO control): most pronounced attenuation of mucus metaplasia
